In patent US20180021373A1, “Ruthenium and Indium Binding to Gastrins” (EUPHARMA PTY LTD, priority 2015, published 2018):
pKd: −log10 of the molar value. Like-named read-outs stand apart in the source and are kept apart here.

What was measured:
Ggly [1] = target: T1, Ggly (Homo sapiens, UniProt P01350); details: 20 equivalents; WO 2004/089976; cited from earlier work
progastrin = target: T2, progastrin (Homo sapiens, UniProt P01350); details: competition with ^59Fe^3+ ions (Baldwin 2004); cited from earlier work
T2 sequence (P01350 27-101 limits assumed): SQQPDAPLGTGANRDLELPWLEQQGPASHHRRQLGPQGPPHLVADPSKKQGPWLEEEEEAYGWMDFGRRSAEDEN

Ggly [2] = target: T1, Ggly; details: Ggly binds two Bi^3+ ions at pH 4; read-out: affinity; cited from earlier work
Ggly [3] = target: T1, Ggly; details: cited from earlier work; for quenching of Ggly fluorescence: WO 2004/089976; for binding to Ggly: detected by measurement of Ggly fluorescence (Baldwin 2001)
Gamide = target: T3, Gamide (Homo sapiens, UniProt P01350); test: Absorption spectroscopy (280 nm) of metal ion binding to Gamide, fitted with BioEqs; details: for A280 (%) for first site / A280 (%) for second site / A280 (%) for mixed FeGastrinM complex: percentage absorbance at 280 nm, fitted
T3 construct: amidated gastrin34 and amidated gastrin17 (Gamide); purchased Auspep (Clayton, Australia)
Protocol: (§1) Gamide and Ggly (88 and 93% pure, respectively) were purchased from Auspep (Clayton, Australia). The impurities consisted of water and salts. Solutions of metal ions (Aldrich, St. Louis, Mo.) were prepared in 10 mM HCl, and their concentrations determined by inductively coupled plasma-atomic emission spectroscopy at the National Measurement Institute (Pymble, Australia).
(§2) The 280 nm absorption of peptides (10 μM in 10 mM sodium acetate, pH 4.0, containing 100 mM NaCl and 0.005% Tween 20) in the presence of increasing concentrations of metal ions was measured against a buffer blank, in 1 ml quartz cuvettes thermostatted at 298 K, with a Cary 5 spectrophotometer (Varian, Mulgrave, Australia).
(§3) Data (expressed as means±S.E.M.) were fitted to one-site or two-site ordered models (as per FIG. 1) with the program BioEqs.
(§4) New absorption data sets were obtained, and fitted with the program Bioeqs as described in the Materials and Methods section. […] In the 2 site competitive model gastrin binds two ferric ions with dissociation constants Kd1Fe and Kd2Fe, and two metal ions M to the same two sites with dissociation constants Kd1M and Kd2M. The dissociation constant Kd3M describes the formation of the mixed FeGastrinM complex.

Ggly [4] = target: T1, Ggly; test: Absorption spectroscopy (280 nm) of metal ion binding to Ggly, fitted with BioEqs; details: for A280 (%) for first site / A280 (%) for second site / A280 (%) for mixed FeGastrinM complex: Ggly, percentage absorbance at 280 nm, fitted
Protocol: as §1, §2, §3, §4

gastrins = test: Screen of binding affinities of a range of metals to gastrins
colon = details: infusion into gastrin-deficient mice (Wang 1996); cited from earlier work
[5] = Gamide 10 μM, pH 4.0, 298 K, 2 site model (Fe, Ga) or 2 site competitive model vs Fe^3+ (In, Ru), read-out: Kd1 (first iron binding site)
[6] = Gamide 10 μM, pH 4.0, 298 K, 2 site or 2 site competitive model, read-out: Kd2 (second site)
[7] = read-out: Kd2 (second site), Ggly 10 μM, pH 4.0, 298 K, 2 site or 2 site competitive model
[8] = Gamide, 2 site competitive model, read-out: Kd3 (formation of mixed FeGastrinM complex)

Molecule: [Al+3] [Al(III)]
- shift in Ggly NMR signals (Ggly [1]): nor did 20 equivalents of Al^3+ cause any significant shift in Ggly NMR signals
- binding to progastrin (progastrin): does not bind

Molecule: [Bi+3] [Bi^3+]
- pKd (Ggly [2]): 5.24

Molecule: [Ca+2] [Ca(II)]
- binding to progastrin (progastrin): does not bind

Molecule: [Co+2] [Co(II)]
- quenching of Ggly fluorescence (Ggly [3]): not quench fluorescence
- binding to Ggly (Ggly [3]): does not bind
- binding to progastrin (progastrin): does not bind

Molecule: [Cr+3] [Cr(III)]
- quenching of Ggly fluorescence (Ggly [3]): not quench fluorescence
- binding to Ggly (Ggly [3]): does not bind
- binding to progastrin (progastrin): does not bind

Molecule: [Cu+2] [Cu(II)]
- quenching of Ggly fluorescence (Ggly [3]): not quench fluorescence
- binding to Ggly (Ggly [3]): does not bind
- binding to progastrin (progastrin): does not bind

Molecule: [Eu+3] [Eu(III)]
- binding to progastrin (progastrin): does not bind

Molecule: [Fe+2] [Fe(II)]
- binding to progastrin (progastrin): does not bind

Molecule: [Fe+3] [Fe^3+]
- pKd (Gamide; [5]): 9.52
- pKd (Gamide; [6]): 10.07
- A280 (%) for first site (Gamide; Gamide): 100.0%
- A280 (%) for second site (Gamide; Gamide): 313.4%
- A280 (%) for first site (Ggly [4]): 100.0%
- A280 (%) for second site (Ggly [4]): 365.9%
- pKd (Ggly [4]; Kd1 (first iron binding site), Ggly 10 μM, pH 4.0, 298 K, 2 site model (Fe, Ga) or 2 site competitive model vs Fe^3+ (In, Ru)): 8.24
- pKd (Ggly [4]; Kd2 (second site), Ggly 10 μM, pH 4.0, 298 K, 2 site or 2 site competitive model): 8.15

Molecule: [Ga+3] [Ga^3+]
- pKd (Gamide; [5]): 6.48
- pKd (Gamide; [6]): 5.96
- A280 (%) for first site (Gamide; Gamide): 100.0%
- A280 (%) for second site (Gamide; Gamide): 335.8%
- pKd (Gamide; Gastrin/Gamide, 2 site model, read-out: dissociation constant (Kd), first site): 6.48
- pKd (Gamide; Gastrin/Gamide, 2 site model, read-out: dissociation constant (Kd), second site): 5.96
- pKd (Ggly [4]): 7.77
- A280 (%) for first site (Ggly [4]): 100.0%
- A280 (%) for second site (Ggly [4]): 340.2%
- pKd (Ggly [4]; [7]): 5.64

Molecule: [In+3] [In^3+]
- pKd (Gamide; [6]): 6.77
- pKd (Gamide; [8]): 8.40
- A280 (%) for first site (Gamide; Gamide): 100.0%
- A280 (%) for mixed FeGastrinM complex (Gamide; Gamide): 217.7%
- A280 (%) for second site (Gamide; Gamide): 74.1%
- pKd (Ggly [4]): 7.02
- A280 (%) for first site (Ggly [4]): 100.0%
- A280 (%) for mixed FeGastrinM complex (Ggly [4]): 255.6%
- A280 (%) for second site (Ggly [4]): 72.8%
- pKd (Ggly [4]; [7]): 4.85

Molecule: [Mn+2] [Mn(II)]
- quenching of Ggly fluorescence (Ggly [3]): not quench fluorescence
- binding to Ggly (Ggly [3]): does not bind
- binding to progastrin (progastrin): does not bind

Molecule: [Ru+3] [Ru^3+]
- pKd (Gamide; [6]): 4.92
- pKd (Gamide; [8]): 7.77
- A280 (%) for first site (Gamide; Gamide): 100.0%
- A280 (%) for mixed FeGastrinM complex (Gamide; Gamide): 264.9%
- A280 (%) for second site (Gamide; Gamide): 178.6%
- pKd (Ggly [4]): 5.92
- A280 (%) for first site (Ggly [4]): 100.0%
- A280 (%) for mixed FeGastrinM complex (Ggly [4]): 304.1%
- A280 (%) for second site (Ggly [4]): 1714.8%
- pKd (Ggly [4]; [7]): 3.44

Molecule: [Zn+2] [Zn(II)]
- binding to progastrin (progastrin): does not bind

Molecule: [Sb] [antimony]
- high affinity binding to gastrins (gastrins): did not show high affinity binding

Molecule: [AsH3] [arsenic]
- high affinity binding to gastrins (gastrins): did not show high affinity binding

Molecule: ZGPWLEEEEEAYGWMDFamide [gastrin/Gamide]
- increase of colonic proliferative index (colon): no effect
